# ChEMBL document CHEMBL1131424 (J Med Chem, 1998)
# pKi: −log10 of the molar value.
# Target: T1, 5-hydroxytryptamine receptor 1A (Rattus norvegicus, UniProt P19327)
# T1 sequence (P19327 whole entry): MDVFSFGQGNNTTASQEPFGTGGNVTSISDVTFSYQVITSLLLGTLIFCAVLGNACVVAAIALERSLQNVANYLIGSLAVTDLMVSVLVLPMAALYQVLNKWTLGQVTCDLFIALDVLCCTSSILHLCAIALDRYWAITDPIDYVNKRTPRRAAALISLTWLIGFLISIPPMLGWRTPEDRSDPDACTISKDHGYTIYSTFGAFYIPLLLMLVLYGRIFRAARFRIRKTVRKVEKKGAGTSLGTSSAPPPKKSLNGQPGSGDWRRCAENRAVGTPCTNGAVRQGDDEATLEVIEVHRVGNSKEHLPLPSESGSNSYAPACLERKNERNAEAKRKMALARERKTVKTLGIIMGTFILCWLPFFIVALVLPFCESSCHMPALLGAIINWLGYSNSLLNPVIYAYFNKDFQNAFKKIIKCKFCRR
# Assay: Binding affinity for rat cortex 5-hydroxytryptamine 1A receptor, by displacement of 0.2 nM [3H]8-OH-DPAT radioligand
row,Compound,pKi
1,COc1ccc2[nH]cc(CCNCc3cccc(-n4cccn4)n3)c2c1,6.18
2,O=C(NCC#CCNCc1cccc(-n2cccn2)n1)c1ccc(Cl)c(Cl)c1,6.61
3,COC(=O)c1ccc(C(=O)N2CCC(CNCc3cccc(-n4cccn4)n3)CC2)cc1Cl,6.78
4,O=C(NCCNCc1cccc(-n2cccn2)n1)C12C[C@H]3C[C@@H](C1)C[C@@H](C2)C3,7.56
5,CSc1cccc(CNCC2CCN(C(=O)c3ccc(Cl)c(Cl)c3)CC2)n1,8.59
6,O=C(c1ccc(F)c(Cl)c1)N1CCC(CNCc2cccc(-n3cccn3)n2)CC1,8.81
7,CN(C)c1cccc(CNCC2CCN(C(=O)c3ccc(Cl)c(Cl)c3)CC2)c1,7.12
8,O=C(c1ccccc1Cl)N1CCC(CNCc2cccc(-n3cccn3)n2)CC1,6.88
9,Cc1cccc(C(=O)N2CCC(CNCc3cccc(-n4cccn4)n3)CC2)c1,8.46
10,O=C(c1ccc(Cl)c(Cl)c1)N1CCC(CNCCc2cccnc2)CC1,6.03
11,O=C(c1cccc(Cl)c1Cl)N1CCC(CNCc2cccc(-n3cccn3)n2)CC1,7.00
12,O=C(c1ccc(Cl)c(Cl)c1)N1CCC(CNCc2ccccn2)CC1,7.58
13,O=C(c1cccc(C(F)(F)F)c1)N1CCC(CNCc2cccc(-n3cccn3)n2)CC1,8.45
14,Fc1ccc(C(CCCNCc2cccc(-n3cccn3)n2)c2ccc(F)cc2)cc1,6.82
15,O=C(C1CCCCC1)N1CCC(CNCc2cccc(-n3cccn3)n2)CC1,7.53
16,O=C(c1ccc(Cl)c(Cl)c1)N1CCC(CNCc2cccc(-c3cccs3)n2)CC1,8.86
17,O=C(c1ccc(Cl)c(Cl)c1)N1CCC(CNCc2cccc(-c3cc[nH]n3)n2)CC1,9.27
18,O=C(c1ccc(Cl)c(Cl)c1)N1CCC(CNCc2cccnc2)CC1,6.38
19,CNc1cccc(CNCC2CCN(C(=O)c3ccc(Cl)c(Cl)c3)CC2)n1,8.76
20,CCCCOc1cccc(CNCC2CCN(C(=O)c3ccc(Cl)c(Cl)c3)CC2)n1,7.73
21,O=C(c1ccc(Cl)c(Cl)c1)N1CCC(CNCc2cccc(-n3ccnc3)n2)CC1,8.13
22,C[S+]([O-])c1cccc(CNCC2CCN(C(=O)c3ccc(Cl)c(Cl)c3)CC2)n1 (configuration not stated),7.33
23,O=C(c1ccc(Cl)c(Cl)c1)N1CCC(CNCc2cccc(-n3cccn3)n2)CC1,8.78
24,CCCN(CCC)Cc1cccc(-n2cccn2)n1,< 5.00
25,Clc1ccc(CN2CCC(CNCc3cccc(-n4cccn4)n3)CC2)cc1Cl,7.75
26,CN(C)c1cccc(CNCC2CCN(C(=O)c3ccc(Cl)c(Cl)c3)CC2)n1,8.85
27,O=C(c1ccc(Cl)c(Cl)c1)N1CCC(CNCCc2ccccn2)CC1,8.92
28,O=C(c1ccc(Cl)c(Cl)c1)N1CCC(CNCCCc2ccccn2)CC1,7.37
29,O=C(c1ccc(Cl)c(Cl)c1)N1CCC(CNCc2cccc(-n3cccc3)c2)CC1,6.53
30,O=C(c1ccc(Cl)c(Cl)c1)N1CCC(CNCCc2ccncc2)CC1,< 6.00

# The remaining compounds from weak to strong by pKi, led by results:
row,pKi,Compound
1,6.19,O=C(c1ccc(Cl)c(Cl)c1)N1CCC(CNCc2cc(-n3cccn3)ccn2)CC1
2,6.39,O=C(c1ccc(Cl)c(Cl)c1)N1CCCC(CNCc2cccc(-n3cccn3)n2)C1 (configuration not stated)
3,6.70,O=S(=O)(c1ccc(Cl)c(Cl)c1)N1CCC(CNCc2cccc(-n3cccn3)n2)CC1
4,6.77,CN(CCCCNCc1cccc(-n2cccn2)n1)C(=O)c1ccccc1
5,6.96,Cn1c(=O)cnn(CCCCNCc2cccc(-n3cccn3)n2)c1=O
6,7.30,N#Cc1cccc(CNCC2CCN(C(=O)c3ccc(Cl)c(Cl)c3)CC2)n1
7,7.31,O=C(c1ccc(Cl)cc1)N1CCC(CNCc2cccc(-n3cccn3)n2)CC1
8,7.33,NC(=O)c1cccc(CNCC2CCN(C(=O)c3ccc(Cl)c(Cl)c3)CC2)n1
9,7.48,O=C(c1ccccc1)N1CCC(CNCc2cccc(-n3cccn3)n2)CC1
10,7.58,O=C(c1cc(Cl)cc(Cl)c1)N1CCC(CNCc2cccc(-n3cccn3)n2)CC1
11,7.75,N#Cc1cccc(C(=O)N2CCC(CNCc3cccc(-n4cccn4)n3)CC2)c1
12,7.83,O=C(c1ccc(Cl)c(Cl)c1)N1CCC(CNCc2cccc(F)c2)CC1
13,7.85,Cc1cccc(C(=O)NCCCCNCc2cccc(-n3cccn3)n2)c1
14,7.87,O=C(c1cccc(F)c1)N1CCC(CNCc2cccc(-n3cccn3)n2)CC1
15,7.88,O=C(N1CCC(CNCc2cccc(-n3cccn3)n2)CC1)C12C[C@H]3C[C@@H](C1)C[C@@H](C2)C3
16,7.93,CCCN(C)c1cccc(CNCC2CCN(C(=O)c3ccc(Cl)c(Cl)c3)CC2)n1
17,7.97,CCOc1cccc(C(=O)N2CCC(CNCc3cccc(-n4cccn4)n3)CC2)c1
18,8.04,COc1ccc(C(=O)N2CCC(CNCc3cccc(-n4cccn4)n3)CC2)cc1Cl
19,8.04,O=C(c1ccc(Cl)c(Cl)c1)N1CCC(CNCc2cc(Cl)ccn2)CC1

row,pKi,Compound
1,8.05,O=C(c1ccc(Cl)c(Cl)c1)N1CCC(CNCc2cccc(F)n2)CC1
2,8.13,O=C(c1ccc(Cl)c(Cl)c1)N1CCC(CNCc2cccc(-c3ccccc3)n2)CC1
3,8.22,O=C(c1ccc(Cl)c(Cl)c1)N1CCC(CNCc2cccc(-c3ccc[nH]3)n2)CC1
4,8.34,O=C(c1ccc(Cl)c(Cl)c1)N1CCC(CNCc2cccc(Cl)n2)CC1
5,8.37,O=C(c1ccc(Cl)c(Cl)c1)N1CCC(CNCc2cccc(-n3cccc3)n2)CC1
6,8.39,Cc1cccc(CNCC2CCN(C(=O)c3ccc(Cl)c(Cl)c3)CC2)n1
7,8.45,O=C(c1ccc(Cl)c(Cl)c1)N1CCC(CNCCc2cccc(-n3cccn3)n2)CC1
8,8.46,COc1cccc(CNCC2CCN(C(=O)c3ccc(Cl)c(Cl)c3)CC2)n1
9,8.50,O=C(c1ccc(Cl)c(Cl)c1)N1CCC(CNCCc2cccc(F)n2)CC1
10,8.57,O=C(c1ccc(Cl)c(Cl)c1)N1CCC(CNCc2cccc(-c3ncc[nH]3)n2)CC1
11,8.64,O=C(c1cccc(Cl)c1)N1CCC(CNCc2cccc(-n3cccn3)n2)CC1
12,8.80,O=C(c1ccc(Cl)c(Cl)c1)N1CCC(CNCc2cccc(N3CCCC3)n2)CC1
13,8.85,Cc1ccc(C(=O)N2CCC(CNCc3cccc(-n4cccn4)n3)CC2)cc1Cl
14,9.03,O=C(c1ccc(Cl)c(Cl)c1)N1CCC(CNCc2cccc(-c3cnco3)n2)CC1
15,9.14,O=C(c1ccc(Cl)c(Cl)c1)N1CCC(CNCc2cccc(-c3ccco3)n2)CC1
16,9.20,CC(C)c1cccc(CNCC2CCN(C(=O)c3ccc(Cl)c(Cl)c3)CC2)n1
17,9.43,O=C(c1ccc(Cl)c(Cl)c1)N1CCC(CNCc2cccc(N3CCC3)n2)CC1
18,9.46,O=C(c1ccc(Cl)c(Cl)c1)N1CCC(CNCc2cccc(-c3nccs3)n2)CC1
